Assay results reported in publication PMC12645083, “Microwave‐Enhanced Synthesis of 2‐Styrylquinoline‐4‐Carboxamides With Promising Anti‐Lymphoma Activity” (Archiv Der Pharmazie, 2025).

Legend:
Format in all cases: cell-based
A549 = experiment: In vitro antiproliferative activity, resazurin cell viability; details: Homo sapiens, non-small cell lung cancer, 72 h of treatment, mean ± SEM
Method: (§1) To test the newly synthesized compounds, various human cell lines were employed. HD‐MB03 cells were purchased from DSMZ (Braunschweig, Germany), while A549, MDA‐MB‐231, RPMI‐8420, SU‐DHL‐8, TOLEDO, VL51, SU‐DHL‐1, SU‐DHL‐18, and KM‐H2 were obtained from ATCC (Manassas, VA, USA). Cells were cultured in DMEM (for MDA‐MB‐231 and A549) or RPMI‐1640 (for RPMI‐8420, SU‐DHL‐8, TOLEDO, VL51, SU‐DHL‐1, SU‐DHL‐18, KM‐H2, and HD‐MB03) media (Gibco, Milan, Italy). Both media were supplemented with 115 units/mL penicillin G (Gibco, Milan, Italy), 115 µg/mL streptomycin (Invitrogen, Milan, Italy), and 10% fetal bovine serum (Invitrogen, Milan, Italy). Peripheral blood mononuclear cells (PBMCs) were isolated from healthy donors as previously described. For cytotoxicity assays, PBMCs were resuspended at 5 × 10⁵ cells/mL in complete RPMI medium with or without 2.5 µg/mL phytohemagglutinin (PHA) (Irvine Scientific) to stimulate T‐cell activation and proliferation. All cell lines were maintained at 37°C in a humidified atmosphere containing 5% CO₂. All compounds were dissolved in DMSO at a 10 mM stock concentration. For dose–response assays, cells were seeded in 96‐well plates at densities optimized for each cell line: HD‐MB03 at 10,000 cells/well, A549 at 4000 cells/well, and MDA‐MB‐231 at 7000 cells/well. All other cell lines were seeded at 20,000 cells/well in a final volume of 100 µL per well. After 24 h, cells were treated with a 6‐point serial dilution of compounds starting from 10 µM, in triplicate for statistical analysis. Seventy‐2 h posttreatment, 10 µL of resazurin solution (100 µg/mL) was added to each well, and cells were incubated for an additional 3–6 h. Fluorescence was measured using a Spark 10 M microplate reader (Tecan Group Ltd., Männedorf, Switzerland) with excitation at 535 nm and emission at 600 nm. The IC₅₀ was defined as the concentration of compound required to inhibit cell proliferation by 50% compared to cells treated with the highest DMSO concentration.
(§2) To test the newly synthesized compounds, various human cell lines were employed. HD-MB03 cells were purchased from DSMZ (Braunschweig, Germany), while A549, MDA-MB-231, RPMI-8420, SU-DHL-8, TOLEDO, VL51, SU-DHL-1, SU-DHL-18, and KM-H2 were obtained from ATCC (Manassas, VA, USA). Cells were cultured in DMEM (for MDA-MB-231 and A549) or RPMI-1640 (for RPMI-8420, SU-DHL-8, TOLEDO, VL51, SU-DHL-1, SU-DHL-18, KM-H2, and HD-MB03) media (Gibco, Milan, Italy). Both media were supplemented with 115 units/mL penicillin G (Gibco, Milan, Italy), 115 µg/mL streptomycin (Invitrogen, Milan, Italy), and 10% fetal bovine serum (Invitrogen, Milan, Italy). Peripheral blood mononuclear cells (PBMCs) were isolated from healthy donors as previously described. ^[1] For cytotoxicity assays, PBMCs were resuspended at 5 × 10⁵ cells/mL in complete RPMI medium with or without 2.5 µg/mL phytohemagglutinin (PHA) (Irvine Scientific) to stimulate T cell activation and proliferation. All cell lines were maintained at 37 °C in a humidified atmosphere containing 5% CO₂. All compounds were dissolved in DMSO at a 10 mM stock concentration. For dose–response assays, cells were seeded in 96-well plates at densities optimized for each cell line: HD-MB03 at 10,000 cells/well, A549 at 4,000 cells/well, and MDA-MB-231 at 7,000 cells/well. All other cell lines were seeded at 20,000 cells/well in a final volume of 100 µL per well. After 24 hours, cells were treated with a 6-point serial dilution of compounds starting from 10 µM, in triplicate for statistical analysis. Seventy-two hours post-treatment, 10 µL of resazurin solution (100 µg/mL) was added to each well, and cells were incubated for an additional 3–6 hours. Fluorescence was measured using a Spark 10M microplate reader (Tecan Group Ltd., Männedorf, Switzerland) with excitation at 535 nm and emission at 600 nm. […]

HD-MB03 = experiment: as above; details: Homo sapiens, medulloblastoma cells, 72 h of treatment, mean ± SEM, at least three experiments
Method: as §1, §2

MDA-MB-231 = experiment: as above; details: Homo sapiens, triple-negative breast cancer, 72 h of treatment, mean ± SEM
Method: as §1, §2

RPMI-8402 = experiment: as above; details: Homo sapiens, T-lymphoblastic leukemia cells, 72 h of treatment, mean ± SEM
Method: as §1, §2

SU-DHL-8 = experiment: as above; details: Homo sapiens, B lymphocyte, large cell lymphoma, 72 h of treatment, mean ± SEM
Method: as §1, §2

KM-H2 = experiment: Antiproliferative activity on lymphoma-derived cell lines, resazurin; details: Homo sapiens, Hodgkin lymphoma, 72 h of treatment, mean ± SEM
Method: as §1, §2

SU-DHL-18 = experiment: as above; details: Homo sapiens; lymph node lymphoma; 72 h of treatment; mean ± SEM
Method: as §1, §2

SU-DHL-1 = experiment: as above; details: Homo sapiens, histiocytic large cell lymphoma, 72 h of treatment, mean ± SEM
Method: as §1, §2

TOLEDO = experiment: as above; details: Homo sapiens, diffuse large B-cell lymphoma, 72 h of treatment, mean ± SEM
Method: as §1, §2

VL51 = experiment: as above; details: Homo sapiens, splenic B-cell lymphoma, 72 h of treatment, mean ± SEM
Method: as §1, §2

[1] = system: panel of five tumor cell lines (HD-MB03, RPMI-8402, SU-DHL-8, A549, MDA-MB-231); experiment: Antiproliferative activity, range over the panel of five tumor cell lines; details: Homo sapiens; range over the active cell lines of the five-line panel; 72 h
Method: The synthesized quinoline derivatives 4a–z and 4aa–ah were evaluated in vitro for their antiproliferative activity against a panel of five tumor cell lines (HD‐MB03, medulloblastoma; RPMI‐8402, T‐lymphoblastic leukemia; SU‐DHL‐8, B lymphocyte, large cell lymphoma; A549, non‐small cell lung cancer; MDA‐MB‐231, triple‐negative breast cancer) (Table 2). […] Replacing the 4‐Cl group with a trifluoromethyl group (4ac) reduced antiproliferative activity.
as §1

| SMILES | IC50 (A549) [µM] | IC50 (HD-MB03) [µM] | IC50 (MDA-MB-231) [µM] | IC50 (RPMI-8402) [µM] | IC50 (SU-DHL-8) [µM] | IC50 (KM-H2) [µM] | IC50 (SU-DHL-18) [µM] | IC50 (SU-DHL-1) [µM] | IC50 (TOLEDO) [µM] | IC50 (VL51) [µM] | IC50 [1] [µM] |
| --- | --- | --- | --- | --- | --- | --- | --- | --- | --- | --- | --- |
| O=C(Nc1ccc([N+](=O)[O-])cc1)c1cc(/C=C/c2ccccc2)nc2ccccc12 [4i, (E)-N-(4-nitrophenyl)-2-styrylquinoline-4-carboxamide] | > 10 | > 10 | > 10 | 1.14 ± 0.12 | 1.64 ± 0.25 | 2.8 ± 0.21 | 7.6 ± 2.8 | 2.32 ± 1.46 | 1.05 ± 0.09 | 1.03 ± 0.02 |  |
| COc1cc(/C=C/c2cc(C(=O)Nc3ccc([N+](=O)[O-])cc3)c3ccccc3n2)cc(OC)c1OC [4s, (E)-N-(4-nitrophenyl)-2-(3,4,5-trimethoxystyryl)quinoline-4-carboxamide] | > 10 | > 10 | > 10 | > 10 | 1.37 ± 0.14 | > 10 | > 10 | > 10 | > 10 | > 10 |  |
| O=C(Nc1ccc(Cl)cc1)c1cc(/C=C/c2ccccc2[N+](=O)[O-])nc2ccccc12 [4ah, (E)-N-(4-chlorophenyl)-2-(2-nitrostyryl)quinoline-4-carboxamide] | 6.92 ± 0.68 | > 10 | 4.99 ± 0.35 | 1.33 ± 0.02 | 2.15 ± 0.45 | 6.74 ± 2.12 | 3.79 ± 0.51 | 4.9 ± 0.31 | 4.93 ± 0.62 | > 10 | 1.33 to 6.92 |
| COc1cc(/C=C/c2cc(C(=O)Nc3c(C)cccc3C)c3ccccc3n2)cc(OC)c1OC [4n, (E)-N-(2,6-dimethylphenyl)-2-(3,4,5-trimethoxystyryl)quinoline-4-carboxamide] | > 10 | > 10 | > 10 | 0.79 ± 0.07 | 0.46 ± 0.05 | > 10 | > 10 | > 10 | > 10 | > 10 |  |
